# Results published in article PMC11152041, “Tricarbonyl rhenium(I) complexes with 8-hydroxyquinolines: structural, chemical, antibacterial, and anticancer characteristics” (RSC Advances, 2024).
# Tested on: HL-60 cells
# Assay: MTT cytotoxicity assay
# Format: cell-based, human
# Conditions: HL-60, 24 h, MTT; read-out: IC50 ± SD
# Method: (§1) The cytotoxicities for studied compounds were evaluated against leukemia cells (HL-60), as well as ovarian (SKOV-3), prostate (PC-3), and breast (MCF-7) cancer cell lines. The potential selectivity of these compounds towards cancer cells was assessed by determination of their cytotoxicities towards breast non-cancerous cells (MCF-10A). For comparison, cisplatin was added to the cytotoxicity assays.
# (§2) Bacterial strains and cell lines were obtained from the American Type Culture Collection (ATCC).[59] […] Antimicrobial activity was tested in Müeller Hinton (MH) II broth (Becton Dickinson). For anticancer activity assay, the following reagents from Merk were used: 3-(4,5-dimethylthiazol-2-yl)-2,5-diphenyltetrazolium bromide (MTT), sodium dodecyl sulfate (SDS) and HCl. The solubilized formazan product was spectrophotometrically quantified in a Power Wave XS (Bio Tek, Winooski, VT, USA) microplate reader. The HL-60 and PC-3 cells were grown in RPMI-1640 medium with stable glutamine (Biowest) supplemented with 10% (v/v) of heat-inactivated fetal bovine serum (FBS, Biowest) and 1% (v/v) of antibiotic–antimycotic solution (Biowest). The SKOV-3 cells were grown in McCoy's 5A medium with L-glutamine (Biowest) supplemented with 10% (v/v) heat-inactivated FBS, and 1% (v/v) antibiotic–antimycotic solution. The MCF-7 cells were grown in Eagle's MEM (Minimal Essential Medium) medium with stable glutamine (Biowest), supplemented with 10% (v/v) heat-inactivated FBS 1% (v/v) MEM non-essential amino acids (Biowest), 1% (v/v) antibiotic–antimycotic solution, and 1 mM sodium pyruvate (Merck). The MCF-10A cells were grown in Ham's F-12K (Kaighn's) Medium with stable glutamine (Gibco) supplemented with 5% (v/v) heat-inactivated FBS, 1% (v/v) MEM non-essential amino acids, 1% (v/v) antibiotic–antimycotic solution, 5 μg mL^−1 insulin, 0.04 μg mL^−1 hydrocortisone (Merck), and 15 ng mL^−1 human Epidermal Growth Factor (hEGF, PeproTech).
# (§3) The cells were cultured in 96-well plates and incubated with the tested compound for 24 h and 48 h. All experiments were performed in exponentially growing cultures. The 0.03 M solutions of the compounds in DMSO were appropriately diluted using culture media. The maximal final concentration of DMSO in each well was 0.1%. The cytotoxicity of the compounds was measured by determining cell viability with a colorimetric test based on 3-(4,5-dimethylthiazol-2-yl)-2,5-diphenyltetrazolium bromide (MTT). MTT stock solution was added to each well to a final concentration of 0.5 mg mL^−1 and incubated for 4 h at 37 °C; following formazan crystals were dissolved by the addition of sodium dodecyl sulfate (SDS) solution (10% SDS in 0.001 M HCl). MTT and SDS were added directly to the cell culture. The compound's IC50 values (concentration required to reduce the viability of cells by 50% compared with the control cells) were calculated from the data obtained with the MTT assay.
row,Structure (SMILES),IC50 [µM]
1,"Cc1ncc[nH]1.[C-]#[O+].[C-]#[O+].[C-]#[O+].[Re][O]c1cccc2cccnc12 [complex 2, [Re(CO)3(Q)MeHim]]",10 ± 1

# Same assay, conditions: HL-60, 48 h, MTT; read-out: IC50 ± SD
row,Structure (SMILES),IC50 [µM]
1,"Cc1ncc[nH]1.[C-]#[O+].[C-]#[O+].[C-]#[O+].[Re][O]c1cccc2cccnc12 [complex 2, [Re(CO)3(Q)MeHim]]",9 ± 1

# Tested on: SKOV-3 cells
# Assay: MTT cytotoxicity assay
# Format: cell-based, human
# Conditions: SKOV-3, 24 h, MTT; read-out: IC50 ± SD
# Method: as §1, §2, §3
row,Structure (SMILES),IC50 [µM]
1,"Cc1ncc[nH]1.[C-]#[O+].[C-]#[O+].[C-]#[O+].[Re][O]c1cccc2cccnc12 [complex 2, [Re(CO)3(Q)MeHim]]",> 100

# Same assay, conditions: SKOV-3, 48 h, MTT; read-out: IC50 ± SD
row,Structure (SMILES),IC50 [µM]
1,"Cc1ncc[nH]1.[C-]#[O+].[C-]#[O+].[C-]#[O+].[Re][O]c1cccc2cccnc12 [complex 2, [Re(CO)3(Q)MeHim]]",44 ± 1

# Tested on: PC-3 cells
# Assay: MTT cytotoxicity assay
# Format: cell-based, human
# Conditions: PC-3, 24 h, MTT; read-out: IC50 ± SD
# Method: as §1, §2, §3
row,Structure (SMILES),IC50 [µM]
1,"Cc1ncc[nH]1.[C-]#[O+].[C-]#[O+].[C-]#[O+].[Re][O]c1cccc2cccnc12 [complex 2, [Re(CO)3(Q)MeHim]]",34 ± 3

# Same assay, conditions: PC-3, 48 h, MTT; read-out: IC50 ± SD
row,Structure (SMILES),IC50 [µM]
1,"Cc1ncc[nH]1.[C-]#[O+].[C-]#[O+].[C-]#[O+].[Re][O]c1cccc2cccnc12 [complex 2, [Re(CO)3(Q)MeHim]]",35 ± 2

# Tested on: MCF-7 cells
# Assay: MTT cytotoxicity assay
# Format: cell-based, human
# Conditions: MCF-7, 24 h, MTT; read-out: IC50 ± SD
# Method: as §1, §2, §3
row,Structure (SMILES),IC50 [µM]
1,"Cc1ncc[nH]1.[C-]#[O+].[C-]#[O+].[C-]#[O+].[Re][O]c1cccc2cccnc12 [complex 2, [Re(CO)3(Q)MeHim]]",36 ± 3

# Same assay, conditions: MCF-7, 48 h, MTT; read-out: IC50 ± SD
row,Structure (SMILES),IC50 [µM]
1,"Cc1ncc[nH]1.[C-]#[O+].[C-]#[O+].[C-]#[O+].[Re][O]c1cccc2cccnc12 [complex 2, [Re(CO)3(Q)MeHim]]",30 ± 1

# Tested on: P. aeruginosa ATCC27853
# Assay: Broth microdilution MIC/MBC (ISO 20776-1)
# Format: cell-based, Pseudomonas aeruginosa
# Conditions: P. aeruginosa ATCC27853, >99.99% reduction of growth
# Method: as §2
# (§4) The in vitro antibacterial activity was determined according to ISO 20776-1.[88] Among the tested microorganisms were Gram-negative rods, E. coli ATCC25922 and P. aeruginosa ATCC27853, and Gram-positive cocci, S. aureus ATCC29213 and E. faecalis ATCC29212. The selected bacterial species represented the most common etiologic agents of human infections and are used for quality control of antimicrobial susceptibility testing.[89] The test procedure included the determination of MICs and MBCs of complexes and their free ligands. MIC and MBC determinations of ciprofloxacin, as the reference antibiotic, were also performed. All compounds were dissolved in DMSO to reach the maximum 512 mg L^−1 concentration. […] The assay consisted of preparing 2-fold dilutions of the substances in a liquid growth medium MH II and inoculating them with a standardized suspension of microorganisms at a McFarland density of 0.5 (≈10^8 CFU mL^−1). The culture plates were incubated at 35 °C for 24 h. The lowest concentration of the compound inhibiting visible bacterial growth was specified as MIC, and the concentration that reduced bacterial growth by >99.99% after counting live bacteria on the plates compared to the positive control was defined as MBC.
row,Structure (SMILES),MBC
1,"Cc1ncc[nH]1.[C-]#[O+].[C-]#[O+].[C-]#[O+].[Re][O]c1cccc2cccnc12 [complex 2, [Re(CO)3(Q)MeHim]]",>512/>512 mg L^−1

# Same assay, conditions: P. aeruginosa ATCC27853, MH II broth, 35 °C, 24 h
row,Structure (SMILES),MIC
1,"Cc1ncc[nH]1.[C-]#[O+].[C-]#[O+].[C-]#[O+].[Re][O]c1cccc2cccnc12 [complex 2, [Re(CO)3(Q)MeHim]]",>512/>512 mg L^−1

# Tested on: E. coli ATCC25922
# Assay: Broth microdilution MIC/MBC (ISO 20776-1)
# Format: cell-based, Escherichia coli
# Conditions: E. coli ATCC25922, >99.99% reduction of growth
# Method: as §2, §4
row,Structure (SMILES),MBC
1,"Cc1ncc[nH]1.[C-]#[O+].[C-]#[O+].[C-]#[O+].[Re][O]c1cccc2cccnc12 [complex 2, [Re(CO)3(Q)MeHim]]",>512/>512 mg L^−1

# Same assay, conditions: E. coli ATCC25922, MH II broth, 35 °C, 24 h
row,Structure (SMILES),MIC
1,"Cc1ncc[nH]1.[C-]#[O+].[C-]#[O+].[C-]#[O+].[Re][O]c1cccc2cccnc12 [complex 2, [Re(CO)3(Q)MeHim]]",>512/>512 mg L^−1

# Tested on: E. faecalis ATCC29212
# Assay: Broth microdilution MIC/MBC (ISO 20776-1)
# Format: cell-based, Enterococcus faecalis
# Conditions: E. faecalis ATCC29212, >99.99% reduction of growth
# Method: as §2, §4
row,Structure (SMILES),MBC [µg/mL]
1,"Cc1ncc[nH]1.[C-]#[O+].[C-]#[O+].[C-]#[O+].[Re][O]c1cccc2cccnc12 [complex 2, [Re(CO)3(Q)MeHim]]",> 512

# Same assay, conditions: E. faecalis ATCC29212, MH II broth, 35 °C, 24 h
row,Structure (SMILES),MIC [µg/mL]
1,"Cc1ncc[nH]1.[C-]#[O+].[C-]#[O+].[C-]#[O+].[Re][O]c1cccc2cccnc12 [complex 2, [Re(CO)3(Q)MeHim]]",128

# Tested on: MCF-10A cells
# Assay: MTT cytotoxicity assay
# Conditions: read-out: IC50 ± SD; MCF-10A (non-cancerous), 24 h, MTT; * precipitation of the complex
# Method: as §1, §2, §3
row,Structure (SMILES),IC50 [µM]
1,"Cc1ncc[nH]1.[C-]#[O+].[C-]#[O+].[C-]#[O+].[Re][O]c1cccc2cccnc12 [complex 2, [Re(CO)3(Q)MeHim]]",31 ± 4

# Same assay, conditions: read-out: IC50 ± SD; MCF-10A (non-cancerous), 48 h, MTT; * precipitation of the complex
row,Structure (SMILES),IC50 [µM]
1,"Cc1ncc[nH]1.[C-]#[O+].[C-]#[O+].[C-]#[O+].[Re][O]c1cccc2cccnc12 [complex 2, [Re(CO)3(Q)MeHim]]",29 ± 5

# Tested on: S. aureus ATCC29213
# Assay: Broth microdilution MIC/MBC (ISO 20776-1)
# Format: cell-based, Staphylococcus aureus
# Conditions: S. aureus ATCC29213, >99.99% reduction of growth
# Method: as §2, §4
row,Structure (SMILES),MBC [µg/mL]
1,"Cc1ncc[nH]1.[C-]#[O+].[C-]#[O+].[C-]#[O+].[Re][O]c1cccc2cccnc12 [complex 2, [Re(CO)3(Q)MeHim]]",> 512

# Same assay, conditions: S. aureus ATCC29213, MH II broth, 35 °C, 24 h
row,Structure (SMILES),MIC [µg/mL]
1,"Cc1ncc[nH]1.[C-]#[O+].[C-]#[O+].[C-]#[O+].[Re][O]c1cccc2cccnc12 [complex 2, [Re(CO)3(Q)MeHim]]",256
